Source: patent publication US20240067651A1 (Biohaven Therapeutics Ltd., priority 2019, published 2024)

What was measured:
[1] = Stability in Simulated Intestinal Fluid (SIF); assay type: in vitro ADME; parameters: key: % parent compound remaining relative to 0-minute sample
Summary of the method: (§1)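 Stability was tested at 37° C in pepsin-supplemented gastric fluid, pH 1.2, and pancreatin-supplemented intestinal fluid, pH 6.8, using 2 μg/mL final compound over 0–60 minutes. Remaining parent was quantified by LC-MS/MS and expressed as a percentage of time zero.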

[2] = Stability in Simulated Gastric Fluid (SGF); assay type: in vitro ADME; parameters: key: % parent compound remaining relative to 0-minute sample
Summary of the method: as §1

[3] = Plasma Stability; assay type: in vitro ADME, human
Summary of the method: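 Compounds incubated at 1 μM in fresh human plasma for 1 hour at 37° C, then protein-precipitated with acetonitrile/formic acid containing internal standard. Remaining parent measured by LC-MS/MS in triplicate, expressed as percent of control remaining.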

[4] = Caco-2 Permeability Assay; assay type: in vitro ADME, human; conditions: human
Summary of the method: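 Caco-2 monolayers cultured 21 days (TEER >600 […]); test article at 10 μM in HBSS/HEPES pH 7.4 transport medium, dosed apical or basolateral, ±Pgp inhibitor. Incubated 90 min at 37 °C; both compartments quantified by LC-MS/MS. Papp (A→B, B→A), efflux ratio and % recovery calculated.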

[5] = % remaining at 1 h in simulated intestinal fluid, the 17th table
[6] = % remaining at 1 h in simulated gastric fluid, the 17th table
[7] = % remaining at 1 h in human plasma, the 17th table
[8] = Caco-2, pH 7.4, Caco-2 monolayer, the 17th table
[9] = % remaining at 1 h, SIF with pancreatin pH 6.8, 2 μg/mL, 37° C.
[10] = % remaining at 1 h, SGF with pepsin pH 1.2, 2 μg/mL, 37° C.
[11] = % remaining at 1 h, human plasma, 1 μM, 37° C.
[12] = Caco-2, pH 7.4, donor 10 μM, 90 minutes, 37° C., direction not given
[13] = simulated intestinal fluid, at 1 h
[14] = simulated gastric fluid, at 1 h
[15] = Caco-2, pH 7.4, Caco-2 monolayer
[16] = simulated intestinal fluid, after 1 h
[17] = simulated gastric fluid, after 1 h
[18] = simulated intestinal fluid, @ 1 h

Row | SMILES | SIF [1, 13] | SGF [2, 14] [% remaining] | human Plasma stability ([3]; human plasma, at 1 h) [% remaining] | Papp at 90 min, 10 µM [4, 15] [×10⁻⁶ cm/s] | also measured
1 | CC(=O)OCc1ccccc1N(C)C(=O)OCn1ccc2c1c(=O)nc(S)n2CCOC(C)C [Example 222] | – | – | – | – | SIF [1, 5]: 88% remaining; SGF [2, 6]: 98% remaining; human Plasma stability [3, 7]: 22% remaining; Papp at 90 min, 10 µM [4, 8]: 2.05 ×10⁻⁶ cm/s
2 | CC(C)NC(=O)n1ccc2c1c(=O)[nH]c(=S)n2CCOC(C)C [Example 223] | – | – | – | – | SIF [1, 5]: 70% remaining; SGF [2, 6]: 87% remaining; human Plasma stability [3, 7]: 99% remaining; Papp at 90 min, 10 µM [4, 8]: 37 ×10⁻⁶ cm/s
3 | CCCCNC(=O)n1ccc2c1c(=O)[nH]c(=S)n2CCOC(C)C [Example 224] | – | – | – | – | SIF [1, 5]: 100% remaining; SGF [2, 6]: 83% remaining; human Plasma stability [3, 7]: 89% remaining; Papp at 90 min, 10 µM [4, 8]: 12.6 ×10⁻⁶ cm/s
4 | CCCNC(=O)n1ccc2c1c(=O)[nH]c(=S)n2CCOC(C)C [Example 225] | – | – | – | – | SIF [1, 5]: 78% remaining; SGF [2, 6]: 98% remaining; human Plasma stability [3, 7]: 99% remaining; Papp at 90 min, 10 µM [4, 8]: 24.3 ×10⁻⁶ cm/s
5 | CCC(C)NC(=O)n1ccc2c1c(=O)[nH]c(=S)n2CCOC(C)C (stereo not shown) [Example 226] | – | – | – | – | SIF [1, 5]: 83% remaining; SGF [2, 6]: 91% remaining; human Plasma stability [3, 7]: 97% remaining; Papp at 90 min, 10 µM [4, 8]: 35.1 ×10⁻⁶ cm/s
6 | CC(C)OCCn1c(=S)[nH]c(=O)c2c1ccn2C(=O)Nc1ccccc1 [Example 227] | – | – | – | – | SIF [1, 5]: 95% remaining; SGF [2, 6]: 100% remaining; human Plasma stability [3, 7]: 99% remaining; Papp at 90 min, 10 µM [4, 8]: 1.67 ×10⁻⁶ cm/s
7 | CC(C)OCCn1c(=S)[nH]c(=O)c2c1ccn2C(=O)NCc1ccccc1 [Example 228] | – | – | – | – | SIF [1, 5]: 100% remaining; SGF [2, 6]: 95% remaining; human Plasma stability [3, 7]: 99% remaining; Papp at 90 min, 10 µM [4, 8]: 10.3 ×10⁻⁶ cm/s
8 | CC(C)OCCn1c(=S)[nH]c(=O)c2c1ccn2C(=O)NC(C)(C)C [Example 229, N-tert-butyl-4-oxo-1-[2-(propan-2-yloxy)ethyl]-2-sulfanylidene-1H,2H,3H,4H,5H-pyrrolo[3,2-d]pyrimidine-5-carboxamide] | – | – | – | – | SIF [1, 9]: 76%; SGF [2, 10]: 98%; human Plasma stability [3, 11]: 96%; Papp at 90 min, 10 µM [4, 12]: 26.4 ×10⁻⁶ cm/s
9 | CCOC(=O)n1ccc2c1c(=O)[nH]c(=S)n2CCOC(C)C [Example 230] | 33% remaining | 99 | 2 | 0.456 | –
10 | CC(C)OCCn1c(=S)[nH]c(=O)c2c1ccn2C(=O)OC(C)C [Example 231] | 40% remaining | 100 | 0 | 3.63 | –
11 | CC(C)COC(=O)n1ccc2c1c(=O)[nH]c(=S)n2CCOC(C)C [Example 232] | 3% remaining | 98 | 2 | 0.256 | –
12 | COC(=O)n1ccc2c1c(=O)[nH]c(=S)n2CCOC(C)C [Example 233] | 70% remaining | 98 | 2 | 0.314 | –
13 | CC(C)OCCn1c(=S)[nH]c(=O)c2c1ccn2COC(=O)Oc1cccc(F)c1 [Example 234] | 8% remaining | 34 | 2 | < 0.33 | –
14 | CC(C)OCCn1c(=S)[nH]c(=O)c2c1ccn2COC(=O)Oc1ccc(F)cc1 [Example 235] | 1% remaining at | 60 | 2 | < 0.369 | –
15 | Cc1ccc(OC(=O)OCn2ccc3c2c(=O)[nH]c(=S)n3CCOC(C)C)cc1 [Example 236] | 1% remaining at | 53 | 1 | 0.59 | –
16 | Cc1cccc(OC(=O)OCn2ccc3c2c(=O)[nH]c(=S)n3CCOC(C)C)c1 [Example 237] | 2% remaining | 74 | 1 | 0.723 | –
17 | CC(C)OCCn1c(=S)[nH]c(=O)c2c1ccn2COC(=O)Oc1ccccc1F [Example 238] | 1% remaining | 13 | 1 | < 0.339 | –

Row | SMILES | SIF [1, 13] | SGF [2, 14] [% remaining] | human Plasma stability ([3]; human plasma, at 1 h) [% remaining] | Papp at 90 min, 10 µM [4, 15] [×10⁻⁶ cm/s] | also measured
18 | CC(C)OCCn1c(SCOC(=O)N(C)c2ccccc2F)nc(=O)c2[nH]ccc21 [Example 239] | 96% remaining | 99 | 85 | 11.7 | –
19 | CC(C)OCCn1c(SCOC(=O)N(C)c2ccccc2Cl)nc(=O)c2[nH]ccc21 [Example 240] | 97% remaining | 99 | 83 | 15.4 | –
20 | COc1ccc(N(C)C(=O)OCSc2nc(=O)c3[nH]ccc3n2CCOC(C)C)cc1 [Example 241] | 97% remaining | 57 | 100 | 10.5 | –
21 | Cc1ccccc1N(C)C(=O)OCSc1nc(=O)c2[nH]ccc2n1CCOC(C)C [Example 242] | 96% remaining | 52 | 81 | 15.6 | –
22 | Cc1ccccc1N(C)C(=O)OCSc1nc(=O)c2c(ccn2COC(=O)N(C)c2ccccc2C)n1CCOC(C)C [Example 243] | 99% remaining | 88 | 99 | 31.4 | –
23 | Cc1ccccc1N(C)C(=O)OCn1c(=O)c2c(ccn2COC(=O)N(C)c2ccccc2C)n(CCOC(C)C)c1=S [Example 244] | 99% remaining | 98 | 52 | 7.47 | –
24 | Cc1cccc(N(C)C(=O)OCSc2nc(=O)c3[nH]ccc3n2CCOC(C)C)c1 [Example 245] | 99% remaining | 99 | 63 | 21.6 | –
25 | Cc1cccc(N(C)C(=O)OCSc2nc(=O)c3c(ccn3COC(=O)N(C)c3cccc(C)c3)n2CCOC(C)C)c1 [Example 246] | 99% remaining | 98 | 99 | 21.7 | –
26 | Cc1cccc(N(C)C(=O)OCn2c(=O)c3c(ccn3COC(=O)N(C)c3cccc(C)c3)n(CCOC(C)C)c2=S)c1 [Example 247] | 81% remaining | 64 | 31 | 3.99 | –
27 | Cc1ccc(N(C)C(=O)OCSc2nc(=O)c3[nH]ccc3n2CCOC(C)C)cc1 [Example 248] | 98% remaining | 99 | 96 | 23.5 | –
28 | CC(C)OCCn1c(SCOC(=O)N(C)c2ccccc2Cl)nc(=O)c2c1ccn2COC(=O)N(C)c1ccccc1Cl [Example 249] | 95% remaining | 89 | 98 | 28.4 | –
29 | CC(C)OCCn1c(=S)[nH]c(=O)c2c1ccn2COC(=O)CCCCCCCCCCCCCCC(=O)O [Example 255, 16-oxo-16-({4-oxo-1-[2-(propan-2-yloxy)ethyl]-2-sulfanylidene-1H,2H,3H,4H,5H-pyrrolo[3,2-d]pyrimidin-5-yl}methoxy)hexadecanoic acid] | – | – | – | – | SIF [1, 9]: 2%; SGF [2, 10]: 95%; human Plasma stability [3, 11]: 76%; Papp at 90 min, 10 µM [4, 12]: 2.72 ×10⁻⁶ cm/s
30 | CC(C)OCCn1c(=S)[nH]c(=O)c2c1ccn2COC(=O)CCCCCCCCCCCCCCC(=O)OC(C)C [Example 256] | – | – | – | 0.25 | SIF [1, 16]: 9% remaining; SGF [2, 17]: 99% remaining; human Plasma stability ([3]; human plasma, after 1 h): 88% remaining
31 | CC(C)OCCn1c(=S)[nH]c(=O)c2c1ccn2COC(=O)CCCCCCCCCCC(=O)O [Example 261] | – | – | – | 11.7 | SIF [1, 16]: 2% remaining; SGF [2, 17]: 99% remaining; human Plasma stability ([3]; human plasma, after 1 h): 94% remaining
32 | CC(C)OCCn1c(=S)[nH]c(=O)c2c1ccn2COC(=O)CCCCCCCCCCC(=O)OC(C)C [Example 262] | – | – | – | < 0.214 | SIF [1, 16]: 2% remaining; SGF [2, 17]: 92% remaining; human Plasma stability ([3]; human plasma, after 1 h): 41% remaining
33 | CC(C)OCCn1c(=S)n(COC(=O)CNC(=O)OC(C)(C)C)c(=O)c2c1ccn2COC(=O)CNC(=O)OC(C)(C)C [Example 283] | – | – | – | 5.78 | SIF [1, 18]: 1% @ 1 h; SGF ([2]; simulated gastric fluid, @ 1 h): 82% @ 1 h; human Plasma stability ([3]; human plasma, @ 1 h): 26% @ 1 h
34 | CC(C)OCCn1c(=S)[nH]c(=O)c2c1ccn2COC(=O)CN [Example 284] | – | – | – | 1.55 | SIF [1, 18]: 6% @ 1 h; SGF ([2]; simulated gastric fluid, @ 1 h): 100% @ 1 h; human Plasma stability ([3]; human plasma, @ 1 h): 0% @ 1 h
